Assay results: US20090298752A1, “APLIDINE TREATMENT OF CANCERS” (PHARMA MAR, S.A., priority 1999, published 2009)
Entries after “also recorded” stand apart in the source; their conditions may differ.

Assays:
HIF-1 = target: T1, HIF-1 (Homo sapiens, UniProt P27540+Q16665); test: gel retardation assay, transcription factor binding; type: biochemical
T1 construct: endogenous in cells; host or cells: nuclear extracts
Procedure: Nuclear extracts were incubated with different aplidine concentrations and labelled oligonucleotides for 60 min. Using gel retardation assay the binding of HIF-1 or AP-1 has been monitored.
Nuclear extracts obtained from cells treated with different aplidine concentrations were incubated with labelled oligonucleotides for 60 min. Using gel retardation assay the binding of HIF-1 has been monitored.

[1] = Phase I, 1 h daily infusion x5 q3wk: toxicity and pharmacokinetics; type: in vivo, human
Procedure: The objectives are to determine the Maximum Tolerated Dose, the Dose Limiting Toxicity (DLT), the pharmacokinetics (PK) and the recommended dose for phase 2 studies that can be given in a daily 1 hour IV infusion×5 days q 3 weeks. Patients with solid tumours and low and intermediate grade Non-Hodgkin's Lymphomas were eligible. The daily starting dose of aplidine was 80 μg/m^2. Cohorts of 3 patients (pts) are treated at each level with dose escalation according to toxicity, 20 patients were treated with 6 dose levels ranging from 80 μg-720 μg/m^2, 1 patient is presently at the dose of 960 μg/m^2. At total of 48 cycles were administered. Non-haematological toxicities were grade 1 and 2 with fatigue reported in most pts. Grade 1 hypersensitivity reactions were documented in 7 patients. Other toxicities included nausea, anorexia, diarrhoea, and anxiety. […] PK analysis was performed in treatment course 1. Aplidine concentrations were analysed by LC tandem mass spectrography. […] Potentially therapeutic plasma concentrations ([…]) were achieved. […] Accrual is ongoing at 960 μg/m^2.

T1 sequence (Q16665 whole entry): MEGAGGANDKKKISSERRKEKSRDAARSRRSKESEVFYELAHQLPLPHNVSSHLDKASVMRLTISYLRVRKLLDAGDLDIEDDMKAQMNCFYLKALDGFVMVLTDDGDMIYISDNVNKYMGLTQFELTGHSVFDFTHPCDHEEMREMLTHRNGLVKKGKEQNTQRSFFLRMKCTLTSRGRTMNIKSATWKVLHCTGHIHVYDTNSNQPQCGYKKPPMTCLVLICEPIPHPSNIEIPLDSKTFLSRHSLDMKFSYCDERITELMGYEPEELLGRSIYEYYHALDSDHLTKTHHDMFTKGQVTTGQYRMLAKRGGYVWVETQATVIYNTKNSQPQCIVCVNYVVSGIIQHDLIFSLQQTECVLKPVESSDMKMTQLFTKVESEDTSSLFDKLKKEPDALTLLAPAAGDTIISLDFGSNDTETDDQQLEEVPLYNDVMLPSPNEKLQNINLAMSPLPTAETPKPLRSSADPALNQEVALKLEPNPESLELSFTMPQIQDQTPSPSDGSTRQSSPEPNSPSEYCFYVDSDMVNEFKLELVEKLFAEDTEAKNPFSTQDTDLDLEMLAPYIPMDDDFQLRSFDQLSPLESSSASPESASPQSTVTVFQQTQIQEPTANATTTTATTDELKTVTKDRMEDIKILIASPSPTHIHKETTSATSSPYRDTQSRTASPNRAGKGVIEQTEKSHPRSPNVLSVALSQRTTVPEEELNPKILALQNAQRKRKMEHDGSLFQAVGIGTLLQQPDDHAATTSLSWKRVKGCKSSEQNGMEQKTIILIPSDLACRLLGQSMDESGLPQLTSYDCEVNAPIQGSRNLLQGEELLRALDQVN
T1 sequence (P27540 whole entry): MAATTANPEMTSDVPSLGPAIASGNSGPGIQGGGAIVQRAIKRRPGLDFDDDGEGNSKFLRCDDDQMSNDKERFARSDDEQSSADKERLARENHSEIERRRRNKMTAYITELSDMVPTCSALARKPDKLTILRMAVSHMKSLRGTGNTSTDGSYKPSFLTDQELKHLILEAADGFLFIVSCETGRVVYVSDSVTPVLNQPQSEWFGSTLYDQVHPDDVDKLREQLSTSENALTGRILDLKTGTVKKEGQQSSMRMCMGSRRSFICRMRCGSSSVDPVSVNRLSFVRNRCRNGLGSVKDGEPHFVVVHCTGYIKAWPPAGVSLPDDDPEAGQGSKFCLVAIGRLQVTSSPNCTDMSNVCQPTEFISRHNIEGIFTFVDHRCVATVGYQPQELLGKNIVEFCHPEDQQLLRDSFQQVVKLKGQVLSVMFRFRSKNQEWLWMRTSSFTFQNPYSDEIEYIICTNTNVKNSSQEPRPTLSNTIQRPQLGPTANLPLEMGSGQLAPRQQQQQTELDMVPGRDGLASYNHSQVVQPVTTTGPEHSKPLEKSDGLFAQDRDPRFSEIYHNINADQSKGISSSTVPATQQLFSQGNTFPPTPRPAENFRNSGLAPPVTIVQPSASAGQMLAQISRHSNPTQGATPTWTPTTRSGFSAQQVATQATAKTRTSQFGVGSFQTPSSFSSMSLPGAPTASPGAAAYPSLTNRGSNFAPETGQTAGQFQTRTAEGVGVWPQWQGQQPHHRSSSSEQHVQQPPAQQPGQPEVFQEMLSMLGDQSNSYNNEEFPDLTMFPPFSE

aplidine
binding of HIF-1 to consensus DNA sequence (HIF-1; nuclear extracts from cells treated with aplidine): does not block the binding | binding of HIF-1 to consensus DNA sequence (HIF-1; nuclear extracts incubated with aplidine, 60 min): does not block the binding; also recorded: did not change the ability | DLT ([1]; 80-960 μg/m^2 daily x5): no DLT has been documented | Bilirubin Grade 1 ([1]; DL 1, 80 ug/m^2): 1 | Diarrhoea Grade 1 ([1]; DL 1, 80 ug/m^2): 1 | Fatigue Grade 1 ([1]; DL 1, 80 ug/m^2): 1 | Fatigue Grade 2 ([1]; DL 1, 80 ug/m^2): 2 | Fever Grade 1 ([1]; DL 1, 80 ug/m^2): 1 | Fever Grade 2 ([1]; DL 1, 80 ug/m^2): 1 | Haemoglobin Grade 1 ([1]; DL 1, 80 ug/m^2): 1 | Haemoglobin Grade 2 ([1]; DL 1, 80 ug/m^2): 2 | Hyper-sensitivity Grade 1 ([1]; DL 1, 80 ug/m^2): 1 | Hyper-sensitivity Grade 2 ([1]; DL 1, 80 ug/m^2): 1 | Motor neuropathy Grade 1 ([1]; DL 1, 80 ug/m^2): 3 | Motor neuropathy Grade 2 ([1]; DL 1, 80 ug/m^2): 2 | Myalgia/weakness Grade 2 ([1]; DL 1, 80 ug/m^2): 1 | Nausea Grade 1 ([1]; DL 1, 80 ug/m^2): 2 | SGOT Grade 1 ([1]; DL 1, 80 ug/m^2): 1 | Sensory neuropathy Grade 1 ([1]; DL 1, 80 ug/m^2): 2 | Sensory neuropathy Grade 2 ([1]; DL 1, 80 ug/m^2): 1 | Haemoglobin Grade 3 ([1]; DL 1, 80 ug/m^2, doubtful): 3 | Diarrhoea Grade 1 ([1]; DL 2, 120 ug/m^2): 2 | Fatigue Grade 1 ([1]; DL 2, 120 ug/m^2): 3 | Haemoglobin Grade 1 ([1]; DL 2, 120 ug/m^2): 2 | Hyper-sensitivity Grade 1 ([1]; DL 2, 120 ug/m^2): 1 | Nausea Grade 1 ([1]; DL 2, 120 ug/m^2): 1 | SGOT Grade 1 ([1]; DL 2, 120 ug/m^2): 1 | Sensory neuropathy Grade 1 ([1]; DL 2, 120 ug/m^2): 2 | Granulocytes Grade 2 ([1]; DL 2, 120 ug/m^2, doubtful): 1 | Haemoglobin Grade 3 ([1]; DL 2, 120 ug/m^2, doubtful): 1 | Haemoglobin Grade 4 ([1]; DL 2, 120 ug/m^2, doubtful): 2 | CPK Grade 4 ([1]; DL 3, 240 ug/m^2): 1 | Creatinine Grade 1 ([1]; DL 3, 240 ug/m^2): 2 | Diarrhoea Grade 2 ([1]; DL 3, 240 ug/m^2): 2 | Fatigue Grade 1 ([1]; DL 3, 240 ug/m^2): 1 | Fatigue Grade 2 ([1]; DL 3, 240 ug/m^2): 1 | Fatigue Grade 3 ([1]; DL 3, 240 ug/m^2): 1 | Haemoglobin Grade 1 ([1]; DL 3, 240 ug/m^2): 1 | Haemoglobin Grade 2 ([1]; DL 3, 240 ug/m^2): 1 | Myalgia/weakness Grade 1 ([1]; DL 3, 240 ug/m^2): 1 | Nausea Grade 1 ([1]; DL 3, 240 ug/m^2): 2 | Nausea Grade 2 ([1]; DL 3, 240 ug/m^2): 1 | SGOT Grade 1 ([1]; DL 3, 240 ug/m^2): 2 | Sensory neuropathy Grade 1 ([1]; DL 3, 240 ug/m^2): 1 | Granulocytes Grade 1 ([1]; DL 3, 240 ug/m^2, doubtful): 1 | Granulocytes Grade 2 ([1]; DL 3, 240 ug/m^2, doubtful): 2 | Haemoglobin Grade 4 ([1]; DL 3, 240 ug/m^2, doubtful): 2 | Creatinine Grade 1 ([1]; DL 4, 360 ug/m^2): 1 | Diarrhoea Grade 1 ([1]; DL 4, 360 ug/m^2): 1 | Fatigue Grade 2 ([1]; DL 4, 360 ug/m^2): 3 | Fever Grade 1 ([1]; DL 4, 360 ug/m^2): 1 | Haemoglobin Grade 1 ([1]; DL 4, 360 ug/m^2): 2 | Haemoglobin Grade 2 ([1]; DL 4, 360 ug/m^2): 2 | Hyper-sensitivity Grade 1 ([1]; DL 4, 360 ug/m^2): 1 | Hyper-sensitivity Grade 2 ([1]; DL 4, 360 ug/m^2): 1 | Motor neuropathy Grade 1 ([1]; DL 4, 360 ug/m^2): 1 | Nausea Grade 1 ([1]; DL 4, 360 ug/m^2): 1 | Nausea Grade 3 ([1]; DL 4, 360 ug/m^2): 1 | SGOT Grade 1 ([1]; DL 4, 360 ug/m^2): 2 | Sensory neuropathy Grade 1 ([1]; DL 4, 360 ug/m^2): 1 | Sensory neuropathy Grade 2 ([1]; DL 4, 360 ug/m^2): 1 | Granulocytes Grade 1 ([1]; DL 4, 360 ug/m^2, doubtful): 1 | Haemoglobin Grade 3 ([1]; DL 4, 360 ug/m^2, doubtful): 1 | Haemoglobin Grade 4 ([1]; DL 4, 360 ug/m^2, doubtful): 2 | CPK Grade 1 ([1]; DL 5, 540 ug/m^2): 1 | Diarrhoea Grade 1 ([1]; DL 5, 540 ug/m^2): 2 | Fatigue Grade 2 ([1]; DL 5, 540 ug/m^2): 2 | Fatigue Grade 3 ([1]; DL 5, 540 ug/m^2): 1 | Fever Grade 2 ([1]; DL 5, 540 ug/m^2): 1 | Haemoglobin Grade 1 ([1]; DL 5, 540 ug/m^2): 1 | Haemoglobin Grade 2 ([1]; DL 5, 540 ug/m^2): 1 | Hyper-sensitivity Grade 1 ([1]; DL 5, 540 ug/m^2): 1 | Motor neuropathy Grade 1 ([1]; DL 5, 540 ug/m^2): 1 | Motor neuropathy Grade 2 ([1]; DL 5, 540 ug/m^2): 1 | Myalgia/weakness Grade 1 ([1]; DL 5, 540 ug/m^2): 1 | Nausea Grade 1 ([1]; DL 5, 540 ug/m^2): 2 | Nausea Grade 3 ([1]; DL 5, 540 ug/m^2): 1 | SGOT Grade 1 ([1]; DL 5, 540 ug/m^2): 2 | Sensory neuropathy Grade 1 ([1]; DL 5, 540 ug/m^2): 2 | Sensory neuropathy Grade 2 ([1]; DL 5, 540 ug/m^2): 1 | Granulocytes Grade 1 ([1]; DL 5, 540 ug/m^2, doubtful): 1 | Haemoglobin Grade 4 ([1]; DL 5, 540 ug/m^2, doubtful): 2 | Bilirubin Grade 1 ([1]; DL 6, 720 ug/m^2): 1 | CPK Grade 1 ([1]; DL 6, 720 ug/m^2): 1 | Diarrhoea Grade 1 ([1]; DL 6, 720 ug/m^2): 1 | Fatigue Grade 1 ([1]; DL 6, 720 ug/m^2): 1 | Fatigue Grade 4 ([1]; DL 6, 720 ug/m^2): 1 | Fever Grade 1 ([1]; DL 6, 720 ug/m^2): 1 | Haemoglobin Grade 2 ([1]; DL 6, 720 ug/m^2): 2 | Hyper-sensitivity Grade 3 ([1]; DL 6, 720 ug/m^2): 1 | Motor neuropathy Grade 3 ([1]; DL 6, 720 ug/m^2): 1 | Myalgia/weakness Grade 4 ([1]; DL 6, 720 ug/m^2): 1 | Nausea Grade 1 ([1]; DL 6, 720 ug/m^2): 3 | SGOT Grade 1 ([1]; DL 6, 720 ug/m^2): 2 | Sensory neuropathy Grade 1 ([1]; DL 6, 720 ug/m^2): 1 | Haemoglobin Grade 3 ([1]; DL 6, 720 ug/m^2, doubtful): 2 | Haemoglobin Grade 4 ([1]; DL 6, 720 ug/m^2, doubtful): 2 | Fatigue Grade 2 ([1]; DL 7, 960 ug/m^2): 2 | Haemoglobin Grade 2 ([1]; DL 7, 960 ug/m^2): 2 | Nausea Grade 1 ([1]; DL 7, 960 ug/m^2): 1 | Nausea Grade 2 ([1]; DL 7, 960 ug/m^2): 1 | Sensory neuropathy Grade 1 ([1]; DL 7, 960 ug/m^2): 1 | Granulocytes Grade 1 ([1]; DL 7, 960 ug/m^2, doubtful): 1 | Haemoglobin Grade 4 ([1]; DL 7, 960 ug/m^2, doubtful): 1 | haematological toxicities ([1]; Example 10): no haematological toxicities | plasma concentrations achieved ([1]; Example 10): > 1000 ng/mL | Grade 1 hypersensitivity reactions ([1]; Example 10, 20 patients): 7 patients | neuropathy or myopathy ([1]; Example 16): No clear evidence of neuropathy or myopathy | total body / plasma clearance ([1]; median): 0.38 L/min
